Source: ChEMBL document CHEMBL1125021, “4-[(Carboxymethyl)oxy]- and 4-[(carboxymethyl)amino]-5,7-dichloroquinoline-2-carboxylic acid: new antagonists of the strychnine-insensitive glycine binding site on the N-methyl-D-aspartate receptor complex” (J Med Chem, 1990)

Molecular target: Glutamate NMDA receptor
Assay: Binding activity against N-methyl-D-aspartate glutamate receptor in rat brain homogenate using [3H]CPP as the radioligand.
Format: tissue-based

| SMILES | IC50 |
| --- | --- |
| O=C(O)c1cc(O)c2c(Cl)cc(Cl)cc2n1 | 37 µM |
| O=C(O)COc1cc(C(=O)O)nc2cc(Cl)cc(Cl)c12 | 893 µM |
| O=C(O)CNc1cc(C(=O)O)nc2cc(Cl)cc(Cl)c12 | 140 µM |

Test system: not listed separately
Assay: Selectivity ratio as the ratio of IC50 values for [3H]CPP/[3H]-gly

| SMILES | Ratio |
| --- | --- |
| O=C(O)c1cc(O)c2c(Cl)cc(Cl)cc2n1 | 463 |
| O=C(O)COc1cc(C(=O)O)nc2cc(Cl)cc(Cl)c12 | 99 |
| O=C(O)CNc1cc(C(=O)O)nc2cc(Cl)cc(Cl)c12 | 1400 |
| O=C(O)c1cc(O)c2ccc(Cl)cc2n1 [7-CHLOROKYNURENIC ACID] | 405 |

Molecular target: Glutamate NMDA receptor
Assay: Binding activity against N-methyl-D-aspartate glutamate receptor in rat brain homogenate using [3H]-glycine as the radioligand.
Format: tissue-based

| SMILES | IC50 |
| --- | --- |
| O=C(O)COc1cc(C(=O)O)nc2cc(Cl)cc(Cl)c12 | 9 µM |
| O=C(O)CNc1cc(C(=O)O)nc2cc(Cl)cc(Cl)c12 | 0.1 µM |

Molecular target: not listed separately
Assay: Antagonistic activity against N-methyl-D-aspartate glutamate receptor induced cGMP in rat cerebellar slices..
Format: functional

| SMILES | IC50 |
| --- | --- |
| O=C(O)c1cc(O)c2c(Cl)cc(Cl)cc2n1 | 3.5 µM |
| O=C(O)COc1cc(C(=O)O)nc2cc(Cl)cc(Cl)c12 | 225 µM |
| O=C(O)CNc1cc(C(=O)O)nc2cc(Cl)cc(Cl)c12 | 3.6 µM |
| O=C(O)c1cc(O)c2ccc(Cl)cc2n1 [7-CHLOROKYNURENIC ACID] | 8 µM |
